# The source made the active and inactive calls. No rule for the calls is given here.
# Tested on: S. cerevisiae tim10-1 mutant yeast, luminescence growth read-out
# Assay: tim10-1 mutant strain growth inhibitors – luminescence, S. cerevisiae, counter-screen for tim23-1 inhibitor project, SAR follow-up (AID 602378)
row,Structure (SMILES),IC50
1,COc1ccc(Cl)cc1NS(=O)(=O)c1c(C)nc2scc(C)n2c1=O,> 99 µM (inactive)
2,CCCN(C(=O)c1ccc([N+](=O)[O-])c(C)c1)c1c(N)n(Cc2ccccc2)c(=O)[nH]c1=O,1.08 µM
3,O=C(CSc1cccc[n+]1[O-])Nc1ccccc1Oc1ccccc1,0.949 µM
4,CC(C)Cn1cnc2c(c(-c3ccccc3)c(-c3ccccc3)n2Cc2ccco2)c1=N,16.8 µM
5,Cc1ccc(/C(N)=N/OC(=O)c2ccccc2)cc1F,1.12 µM
6,N/C(=N\OC(=O)c1ccc(Cl)cc1)c1ccc(Cl)cc1,1.1 µM
7,O=C(Nc1ccc2nc(-c3ccc(Br)o3)[nH]c2c1)c1cccs1,24.6 µM
8,Cc1nc2scc(C)n2c(=O)c1S(=O)(=O)Nc1ccc(OC(F)(F)F)cc1,26.5 µM
9,Cc1nc2scc(C)n2c(=O)c1S(=O)(=O)Nc1cc(C(F)(F)F)ccc1Cl,> 99 µM (inactive)
10,Cc1ccc2nc(CS(=O)(=O)c3ncccc3Cl)cc(=O)n2c1,> 99 µM (inactive)
11,O=C(Nc1ccc(-c2cn3ccccc3n2)cc1)c1cccs1,> 99 µM (inactive)
12,N/C(=N\OC(=O)c1ccccc1)c1ccc(F)cc1F,6.71 µM
13,Oc1ccc(Oc2ccc(Oc3ccc(O)cc3)cc2)cc1,25.6 µM
14,CCOc1cc2ccccc2cc1C(=O)O/N=C(\N)c1ccc(Cl)cc1,1.61 µM
15,CS(=O)(=O)Nc1ccc(/C(N)=N/OC(=O)c2ccccc2Cl)cc1,> 99 µM (inactive)
16,Cc1noc(C)c1S(=O)(=O)Nc1ccc(-c2cn3c(n2)SCC3)cc1,> 99 µM (inactive)
17,CN1CCc2nc3sc(C(=O)C45CC6CC(CC(C6)C4)C5)c(N)c3cc2C1,69.3 µM
18,Cc1c2c(n(Cc3ccco3)c1C)N=CN1CCS(=O)(=O)N=C21,> 99 µM (inactive)
19,CCOc1ccc(NS(=O)(=O)c2c(C)nc3scc(C)n3c2=O)cc1,> 99 µM (inactive)
20,Cc1nn(Cc2cccc(C(=O)O/N=C(\N)c3ccc(Cl)cc3)c2)c(C)c1Br,1.51 µM

row,Structure (SMILES),IC50
1,O=c1cc(CSc2ccc(S(=O)(=O)N3CCCCC3)cn2)nc2ccc(Br)cn12,> 99 µM (inactive)
2,Cc1cc(OCC(=O)O/N=C(\N)Cc2ccc(Cl)cc2)ccc1Br,3.28 µM
3,NC(=O)C1CCN(c2nc(-c3cccnc3)nc3ccccc23)CC1,> 99 µM (inactive)
4,CCOc1ccc2nc(N3C(=O)CNC3=S)sc2c1,> 99 µM (inactive)
5,Cc1ccc(-c2nc3ccc(NC(=O)c4cccs4)cc3[nH]2)o1,16.4 µM
6,COc1cc2c(cc1OC)/C(=C/c1ccc(Cl)cc1)C(=O)OC2,10.8 µM
7,O=c1cc(CSc2ccc(S(=O)(=O)N3CCOCC3)cn2)nc2ccc(Br)cn12,77.4 µM
8,Cc1ccc2nc(CSc3ccc(S(=O)(=O)N4CCCC4)cn3)cc(=O)n2c1,> 99 µM (inactive)
9,Cc1nc2scc(C)n2c(=O)c1S(=O)(=O)Nc1ccccc1,66.9 µM
10,Cc1ccc(Nc2nc(-c3cccnc3)nc3ccccc23)cc1,14.1 µM
11,Cc1nc2scc(C)n2c(=O)c1S(=O)(=O)Nc1ccc(N2CCN(C(=O)C(C)C)CC2)cc1,> 99 µM (inactive)
12,COc1ccc(/C=C/C(=O)Nc2ccc3c(c2)CCC3)cc1OC,17.5 µM
13,O=C1OC(c2ccccc2)=N/C1=C\C=C\c1ccco1,3.62 µM
14,CC(C)(C)c1csc(NC(=O)c2ccc(Cl)s2)n1,54.7 µM
15,Cc1nc2scc(C)n2c(=O)c1S(=O)(=O)Nc1cccc(O)c1,> 99 µM (inactive)
16,Cc1ccc2nc(N3C(=O)CNC3=S)sc2c1,13 µM
17,N/C(=N\OC(=O)c1ccc(Cl)cc1)c1cccc(CS(=O)(=O)c2ccccn2)c1,14 µM
18,CC1(C)C=Cc2cc(/C(N)=N/OC(=O)c3ccccc3)ccc2O1,0.66 µM
19,N/C(Cc1cccc2ccccc12)=N\OC(=O)COc1ccc(Cl)cc1Cl,27.9 µM
20,C=C1CCc2c([nH]c3ccc(OCC(C)C)cc23)C1=O,> 99 µM (inactive)

row,Structure (SMILES),IC50
1,N#C/C(=C\c1ccc(Cl)cc1)C(=O)Nc1cccnc1,25.6 µM
2,Cc1csc(NC(=O)c2sc3nc4c(cc3c2N)CN(C)CC4)n1,> 99 µM (inactive)
3,O=C(N/N=C/C(Cl)=C\c1ccccc1)c1cccs1,42.7 µM
4,CC(=O)c1ccc2[nH]c3c(c2c1)CCCC3=O,> 99 µM (inactive)
5,N/C(=N\OC(=O)c1cccc2ccccc12)c1ccc(Cl)cc1,1.03 µM
6,O=C(CSCc1ccccc1)Nc1cc(S(=O)(=O)N2CCOCC2)ccc1Oc1ccccc1,> 99 µM (inactive)
7,Cc1ccc(OCC(=O)O/N=C(\N)Cc2ccc(Cl)cc2)cc1,2.57 µM
8,Cc1ccc(-c2nn(-c3ccccc3)cc2NC(=O)CCl)cc1,1.88 µM
9,Cc1nc2scc(C)n2c(=O)c1S(=O)(=O)Nc1ccc(N2CCN(S(C)(=O)=O)CC2)cc1,> 99 µM (inactive)
10,CC(=O)c1ccc(NS(=O)(=O)c2c(C)nc3scc(C)n3c2=O)cc1,> 99 µM (inactive)
11,O=C(Nc1ccn[nH]1)c1cccc(OCc2cccnc2)c1,> 99 µM (inactive)
12,Cc1nc2scc(C)n2c(=O)c1S(=O)(=O)Nc1ccc(N2CCOCC2)cc1,> 99 µM (inactive)
13,Nc1cccc(Oc2ccc(Oc3cccc(N)c3)cc2)c1,> 99 µM (inactive)
14,N/C(=N\OC(=O)c1ccc2ccccc2c1)c1ccc(I)cc1,> 99 µM (inactive)
15,N#Cc1c(-c2ccccc2)cc(-c2ccc(O)cc2)nc1N,10.3 µM
16,Cc1nc2scc(C)n2c(=O)c1S(=O)(=O)Nc1ccc(Oc2ccc(Cl)cc2)cc1,> 99 µM (inactive)
17,CCN(C(=O)c1cccc2ncccc12)c1c(N)n(Cc2ccccc2)c(=O)[nH]c1=O,> 99 µM (inactive)
18,CCCCOc1ccc(C(=O)O/N=C(\N)c2cccc(Br)c2)cc1,1.09 µM
19,O=C(Nc1nc2ccccc2s1)C1CCCN1S(=O)(=O)c1ccc(Cl)cc1 (stereo not given),13.1 µM
20,Cc1nc2scc(C)n2c(=O)c1S(=O)(=O)Nc1ccc(N2CCOCC2)c(Cl)c1,> 99 µM (inactive)
